Experimental data: patent publication US20250353864A1, “INDAZOLE CONTAINING MACROCYCLES AND THEIR USE” (BLOSSOMHILL THERAPEUTICS, INC., priority 2022, published 2025)

Columns and labels:
Format in all cases: biochemical
[1] = target: EGFR WT (Homo sapiens (Human), UniProt P00533); test: HotSpot radiometric kinase assay (Reaction Biology), EGFR WT; conditions: 10 μM ATP
Procedure, shortened: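 Compounds were preincubated ~20 min with kinase/substrate in pH 7.5 Hepes buffer (MgCl2, EGTA, Brij35, BSA, Na3VO4, DTT, 1% DMSO), then ATP plus 33P-ATP was added to 10 μM final. After 120 min at room temperature, reactions were spotted on P81 filters and washed; IC50 values came from curve fits.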

[2] = target: EGFR (D770_N771insNPG) (Homo sapiens (Human), UniProt P00533, INS770NPG); test: HotSpot radiometric kinase assay, EGFR (D770_N771insNPG); conditions: 10 μM ATP, read-out: EGFR (Δ770_N771insNPG) IC50
Procedure, shortened: (§1)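 Radiometric filter-binding assay with EGFR mutant kinase/substrate pairs in 20 mM Hepes pH 7.5 with Mg, EGTA, Brij35, BSA, Na3VO4, DTT, 1% DMSO. Compound preincubated ~20 min, then ATP/^33P-ATP added at 10 μM final. Reaction 120 min at room temperature, spotted on P81 paper; IC50 from curve fits.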

[3] = target: EGFR Δ746-750 mutant (Homo sapiens (Human), UniProt P00533, DEL746-750); test: HotSpot radiometric kinase assay, EGFR Δ746-750 mutant; conditions: 10 μM ATP
Chain of EGFR Δ746-750 mutant (P00533 other isoform, or with tags, fused parts or gaps del 1-668/del 746-750 limits assumed): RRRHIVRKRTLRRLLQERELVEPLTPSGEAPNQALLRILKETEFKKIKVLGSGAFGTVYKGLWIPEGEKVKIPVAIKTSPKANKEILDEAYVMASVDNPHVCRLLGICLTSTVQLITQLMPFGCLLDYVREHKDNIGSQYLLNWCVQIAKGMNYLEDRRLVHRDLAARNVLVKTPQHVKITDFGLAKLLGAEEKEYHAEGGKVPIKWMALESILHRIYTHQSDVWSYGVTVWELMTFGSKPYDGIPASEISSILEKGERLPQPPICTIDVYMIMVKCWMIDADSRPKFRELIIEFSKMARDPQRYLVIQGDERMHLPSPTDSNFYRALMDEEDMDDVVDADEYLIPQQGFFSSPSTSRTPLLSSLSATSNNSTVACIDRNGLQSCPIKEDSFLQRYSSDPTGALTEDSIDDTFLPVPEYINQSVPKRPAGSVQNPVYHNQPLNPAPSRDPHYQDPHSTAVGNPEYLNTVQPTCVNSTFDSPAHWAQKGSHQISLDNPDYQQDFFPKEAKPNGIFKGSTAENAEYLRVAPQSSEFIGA
Procedure, shortened: as §1

[4] = target: EGFR Δ746-750/C797S mutant (Homo sapiens (Human), UniProt P00533, C797S/DEL746-750); test: HotSpot radiometric kinase assay, EGFR Δ746-750/C797S mutant; conditions: 10 μM ATP
Chain of EGFR Δ746-750/C797S mutant (P00533 other isoform, or with tags, fused parts or gaps C797S/del 1-668/del 746-750 limits assumed): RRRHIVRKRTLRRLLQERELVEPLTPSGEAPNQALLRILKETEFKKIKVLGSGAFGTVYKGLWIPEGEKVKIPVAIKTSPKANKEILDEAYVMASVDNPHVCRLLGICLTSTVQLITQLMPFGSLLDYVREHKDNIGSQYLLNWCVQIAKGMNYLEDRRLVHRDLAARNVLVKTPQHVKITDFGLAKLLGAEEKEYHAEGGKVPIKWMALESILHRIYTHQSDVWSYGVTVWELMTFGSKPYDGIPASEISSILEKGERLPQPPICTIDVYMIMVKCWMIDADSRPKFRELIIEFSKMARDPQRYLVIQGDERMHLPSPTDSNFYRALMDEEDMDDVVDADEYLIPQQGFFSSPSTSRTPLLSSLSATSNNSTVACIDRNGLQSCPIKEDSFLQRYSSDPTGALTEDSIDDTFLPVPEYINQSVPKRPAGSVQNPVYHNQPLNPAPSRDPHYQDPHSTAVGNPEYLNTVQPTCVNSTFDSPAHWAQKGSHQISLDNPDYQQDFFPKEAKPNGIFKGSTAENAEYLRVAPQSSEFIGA
Procedure, shortened: as §1

[5] = target: EGFR L858R mutant (Homo sapiens (Human), UniProt P00533, L858R); test: HotSpot radiometric kinase assay, EGFR L858R mutant; conditions: 10 μM ATP
Chain of EGFR L858R mutant (P00533 25-1210 L858R): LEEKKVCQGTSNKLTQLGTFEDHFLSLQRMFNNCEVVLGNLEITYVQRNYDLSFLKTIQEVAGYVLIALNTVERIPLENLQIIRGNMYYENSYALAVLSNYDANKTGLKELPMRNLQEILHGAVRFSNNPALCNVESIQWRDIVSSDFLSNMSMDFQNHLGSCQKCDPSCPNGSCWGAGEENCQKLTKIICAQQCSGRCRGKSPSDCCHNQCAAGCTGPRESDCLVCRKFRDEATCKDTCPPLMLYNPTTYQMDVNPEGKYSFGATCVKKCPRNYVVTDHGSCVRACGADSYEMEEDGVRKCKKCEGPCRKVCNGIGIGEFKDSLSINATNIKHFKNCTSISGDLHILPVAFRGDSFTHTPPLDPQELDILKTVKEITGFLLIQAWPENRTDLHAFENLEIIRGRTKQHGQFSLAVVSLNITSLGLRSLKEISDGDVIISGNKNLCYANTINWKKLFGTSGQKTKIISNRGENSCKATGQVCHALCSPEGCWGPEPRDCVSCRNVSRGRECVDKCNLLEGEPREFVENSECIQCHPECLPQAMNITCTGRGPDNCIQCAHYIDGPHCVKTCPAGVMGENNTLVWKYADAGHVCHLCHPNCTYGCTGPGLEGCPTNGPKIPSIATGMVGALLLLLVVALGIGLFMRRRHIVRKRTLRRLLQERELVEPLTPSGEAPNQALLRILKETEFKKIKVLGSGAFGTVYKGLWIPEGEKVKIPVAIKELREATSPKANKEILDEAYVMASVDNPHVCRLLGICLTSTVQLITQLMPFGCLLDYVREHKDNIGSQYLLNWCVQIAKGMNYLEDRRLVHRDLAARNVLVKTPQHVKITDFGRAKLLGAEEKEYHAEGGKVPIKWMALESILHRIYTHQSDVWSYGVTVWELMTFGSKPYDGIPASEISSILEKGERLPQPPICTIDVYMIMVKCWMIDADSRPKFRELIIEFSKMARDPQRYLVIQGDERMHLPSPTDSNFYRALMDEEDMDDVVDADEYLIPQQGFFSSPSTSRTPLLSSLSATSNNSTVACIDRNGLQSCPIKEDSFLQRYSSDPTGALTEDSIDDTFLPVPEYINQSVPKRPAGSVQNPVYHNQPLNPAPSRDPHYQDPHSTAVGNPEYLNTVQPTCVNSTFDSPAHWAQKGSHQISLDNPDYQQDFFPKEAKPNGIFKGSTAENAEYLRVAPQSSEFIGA
Procedure, shortened: as §1

[6] = target: EGFR L858R/T790M mutant (Homo sapiens (Human), UniProt P00533, L858R/T790M); test: HotSpot radiometric kinase assay, EGFR L858R/T790M mutant; conditions: 10 μM ATP
Chain of EGFR L858R/T790M mutant (P00533 25-1210 T790M/L858R): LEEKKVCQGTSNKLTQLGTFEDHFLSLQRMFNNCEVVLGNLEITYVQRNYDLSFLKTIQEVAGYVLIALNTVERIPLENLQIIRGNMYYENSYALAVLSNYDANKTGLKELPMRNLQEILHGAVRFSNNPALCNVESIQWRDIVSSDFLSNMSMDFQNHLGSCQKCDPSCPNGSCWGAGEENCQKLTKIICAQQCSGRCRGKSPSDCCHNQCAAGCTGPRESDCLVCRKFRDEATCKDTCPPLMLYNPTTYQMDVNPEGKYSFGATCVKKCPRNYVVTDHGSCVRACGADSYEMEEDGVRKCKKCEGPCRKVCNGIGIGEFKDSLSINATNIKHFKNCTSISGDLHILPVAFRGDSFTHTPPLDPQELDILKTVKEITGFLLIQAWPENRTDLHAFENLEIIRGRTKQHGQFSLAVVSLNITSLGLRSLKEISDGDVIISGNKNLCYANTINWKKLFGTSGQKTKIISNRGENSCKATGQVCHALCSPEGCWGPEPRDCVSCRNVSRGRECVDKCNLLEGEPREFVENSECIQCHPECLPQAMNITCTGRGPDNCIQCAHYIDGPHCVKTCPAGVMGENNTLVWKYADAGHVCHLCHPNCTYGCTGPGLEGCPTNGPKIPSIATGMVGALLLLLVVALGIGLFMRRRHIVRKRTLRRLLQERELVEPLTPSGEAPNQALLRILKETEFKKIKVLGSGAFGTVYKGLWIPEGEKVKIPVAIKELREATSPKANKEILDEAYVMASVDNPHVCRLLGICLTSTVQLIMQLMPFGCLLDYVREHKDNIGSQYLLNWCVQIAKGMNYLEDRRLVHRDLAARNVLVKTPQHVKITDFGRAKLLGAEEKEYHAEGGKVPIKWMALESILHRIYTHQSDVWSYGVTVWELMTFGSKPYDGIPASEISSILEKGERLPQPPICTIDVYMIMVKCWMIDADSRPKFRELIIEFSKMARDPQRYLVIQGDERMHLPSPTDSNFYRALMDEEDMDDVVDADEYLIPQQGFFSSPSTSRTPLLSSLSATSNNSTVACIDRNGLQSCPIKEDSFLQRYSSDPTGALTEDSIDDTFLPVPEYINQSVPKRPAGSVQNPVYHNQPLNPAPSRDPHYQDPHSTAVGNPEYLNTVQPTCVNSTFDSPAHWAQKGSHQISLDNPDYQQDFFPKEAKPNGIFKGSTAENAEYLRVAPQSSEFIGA
Procedure, shortened: as §1

[7] = target: EGFR L858R/T790M/C797S mutant (Homo sapiens (Human), UniProt P00533, C797S/L858R/T790M); test: HotSpot radiometric kinase assay, EGFR L858R/T790M/C797S mutant; conditions: 10 μM ATP
Chain of EGFR L858R/T790M/C797S mutant (P00533 25-1210 T790M/C797S/L858R): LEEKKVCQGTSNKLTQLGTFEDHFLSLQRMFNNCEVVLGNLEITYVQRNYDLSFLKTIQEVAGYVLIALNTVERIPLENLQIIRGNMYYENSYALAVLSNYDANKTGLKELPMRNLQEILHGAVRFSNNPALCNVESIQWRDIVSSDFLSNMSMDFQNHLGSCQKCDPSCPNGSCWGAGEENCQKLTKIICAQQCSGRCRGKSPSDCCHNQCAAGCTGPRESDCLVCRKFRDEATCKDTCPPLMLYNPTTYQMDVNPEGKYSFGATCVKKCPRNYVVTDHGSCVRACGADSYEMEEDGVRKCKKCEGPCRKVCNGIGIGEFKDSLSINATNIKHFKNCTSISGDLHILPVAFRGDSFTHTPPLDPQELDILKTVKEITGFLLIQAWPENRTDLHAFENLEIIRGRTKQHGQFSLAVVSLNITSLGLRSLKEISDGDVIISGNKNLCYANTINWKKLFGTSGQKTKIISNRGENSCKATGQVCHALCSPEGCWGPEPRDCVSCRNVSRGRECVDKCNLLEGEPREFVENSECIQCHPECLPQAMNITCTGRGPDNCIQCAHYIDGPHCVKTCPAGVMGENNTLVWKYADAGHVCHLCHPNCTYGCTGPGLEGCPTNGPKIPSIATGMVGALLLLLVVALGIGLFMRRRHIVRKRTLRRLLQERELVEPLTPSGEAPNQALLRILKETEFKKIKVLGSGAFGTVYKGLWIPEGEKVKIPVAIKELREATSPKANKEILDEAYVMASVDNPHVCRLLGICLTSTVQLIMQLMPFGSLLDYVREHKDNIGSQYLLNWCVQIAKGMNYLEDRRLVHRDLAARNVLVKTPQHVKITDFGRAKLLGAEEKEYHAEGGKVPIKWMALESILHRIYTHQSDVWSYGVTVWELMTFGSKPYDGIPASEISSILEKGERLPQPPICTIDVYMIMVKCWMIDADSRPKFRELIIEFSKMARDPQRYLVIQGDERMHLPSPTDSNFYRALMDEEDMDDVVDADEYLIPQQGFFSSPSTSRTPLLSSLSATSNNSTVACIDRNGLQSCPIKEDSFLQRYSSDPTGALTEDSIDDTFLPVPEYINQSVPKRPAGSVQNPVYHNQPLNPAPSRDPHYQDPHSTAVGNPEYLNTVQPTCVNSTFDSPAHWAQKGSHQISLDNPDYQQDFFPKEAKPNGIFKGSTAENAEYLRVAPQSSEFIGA
Procedure, shortened: as §1

| Structure (SMILES) | IC50 [1] [nM] | IC50 [2] [nM] | IC50 [3] [nM] | IC50 [4] [nM] | IC50 [5] [nM] | IC50 [6] [nM] | IC50 [7] [nM] |
| --- | --- | --- | --- | --- | --- | --- | --- |
| CCN1CCOc2c(c(C)nn2C)/C=C/c2n[nH]c3ccc(cc23)-c2cnn(C)c2C1 [Example 111, (17E)-10-ethyl-8,14,16-trimethyl-2,9,10,11,12,14-hexahydro-8H-3,5-ethenotripyrazolo[3,4-f:4′,3′-j:4″,3″-n][1,4]oxazacyclopentadecine] | 63.3 | 16.8 | 3.29 | 9.18 | 8.04 | 0.39 | 1.91 |
| Cn1ncc2c1OCCN1CC[C@@H](Oc3ccc(C(C)(C)O)cc3/C=C/c3n[nH]c4ccc-2cc34)C1=O [Example 135, (10R,16E)-14-(2-hydroxypropan-2-yl)-3-methyl-3,5,6,9,10,19-hexahydro-8H-20,22-etheno-7,10-methanodipyrazolo[3,4-i:4′,3′-m][1,8,5]benzodioxazacyclooctadecin-25-one] | 829 | 802 | 48.3 | 97.7 | 128 | 20 | 38.6 |
| Cc1nn([C@H]2CN(C)C[C@@H]2O)c2c1/C=C/c1n[nH]c3ccc(cc13)-c1cnn(C)c1CN(C)CCO2 (racemic) [Example 98, (rac)-(3S,4S)-1-methyl-4-[(17E)-8,10,16-trimethyl-2,8,9,10,11,12-hexahydro-14H-3,5-ethenotripyrazolo[3,4-f:4′,3′-j:4″,3″-n][1,4]oxazacyclopentadecin-14-yl]pyrrolidin-3-ol] | 119 | 148 | 84.9 | 27 | 41.1 | 3.56 | 12.1 |
| CCOc1nn(CCO)c2c1/C=C/c1n[nH]c3ccc(cc13)-c1cnn(C)c1O[C@H]1CN(C)C[C@@H]1N(C)C2 (single isomer, unassigned) [Ex. 270] | 543 | 635 | 93.6 | 20.5 | 161 | 4.58 | 1.1 |
| Cc1c2c(nn1[C@H]1C[C@@H](NCCN(C)C)C1)OCCCOc1c(cnn1C)-c1ccc3[nH]nc(c3c1)/C=C/2 [Example 107, N^2-{(1s,3s)-3-[(17E)-8,16-dimethyl-2,8,11,12-tetrahydro-10H,15H-3,5-etheno[1,5]dioxacyclopentadecino[10,11-c:15,14-c′:6,7-c″]tripyrazol-15-yl]cyclobutyl}-N^1,N^1-dimethylethane-1,2-diamine] | 41.9 | 66.5 | 34.1 | 42.2 | 13.6 | 2.28 | 11.3 |
| Cc1nn([C@H]2CCNC[C@@H]2O)c2c1/C=C/c1n[nH]c3ccc(cc13)-c1cnn(C)c1OCCCO2 (racemic) [Example 80, (rac)-4-[(17E)-8,16-dimethyl-2,8,11,12-tetrahydro-10H,14H-3,5-etheno[1,5]dioxacyclopentadecino[10,11-c:15,14-c′:6,7-c′]tripyrazol-14-yl]piperidin-3-ol] | 50.8 | 59.1 | 38.7 | 39.2 | 24.7 | 4.37 | 11.2 |
| Cc1nn([C@H]2COC[C@@H]2O)c2c1/C=C/c1n[nH]c3ccc(cc13)-c1cnn(C)c1OCCCO2 (single isomer, unassigned) [Example 76] | 538 | 233 | 147 | 90.8 | 156 | 42.9 | 63.4 |

The remaining lines, values ahead:

| IC50 [1] [nM] | IC50 [2] [nM] | IC50 [3] [nM] | IC50 [4] [nM] | IC50 [5] [nM] | IC50 [6] [nM] | IC50 [7] [nM] | Structure (SMILES) |
| --- | --- | --- | --- | --- | --- | --- | --- |
| 3.02 | 6.5 | 0.58 | 0.4 | 0.47 | 0.09 | 0.33 | CCc1nn(CCO)c2c1/C=C/c1n[nH]c3ccc(cc13)-c1cnn(C)c1O[C@@H](C)CN(C)C2 [Example 129, 2-[(10S,17E)-16-ethyl-8,10,12-trimethyl-2,8,10,11,12,13-hexahydro-14H-3,5-ethenotripyrazolo[3,4-f:3′,4′-j:4″,3″-n][1,4]oxazacyclopentadecin-14-yl]ethan-1-ol] |
| 167 | 524 | 121 | 23 | 30.1 | 1.95 | 4.93 | Cc1c2c(nn1CCC(C)O)CN(C)C[C@H](C)Oc1c(cnn1C)-c1ccc3[nH]nc(c3c1)/C=C/2 (stereo partly drawn) [Example 95, 4-[(10S,17E)-8,10,12,16-tetramethyl-2,8,10,11,12,13-hexahydro-15H-3,5-ethenotripyrazolo[3,4-f:3′,4′-j:4″,3″-n][1,4]oxazacyclopentadecin-15-yl]butan-2-ol] |
| 296 | 283 | 40.7 | 41.3 | 94.1 | 6.14 | 13 | Cc1c2c(nn1CCN1CCCC1)CN(C)C[C@@H](C)Oc1c(cnn1C)-c1ccc3[nH]nc(c3c1)/C=C/2 [Example 121, (10R,17E)-8,10,12,16-tetramethyl-15-[2-(pyrrolidin-1-yl)ethyl]-2,10,11,12,13,15-hexahydro-8H-3,5-ethenotripyrazolo[3,4-f:3′,4′-j:4″,3″- n][1,4]oxazacyclopentadecine] |
| 457 | 851 | 81.1 | 38.4 | 84.3 | 7.32 | 5.66 | Cc1nn(C)c2c1CN(C)C[C@H](C)Oc1c(cnn1C)-c1ccc3[nH]nc(c3c1)/C=C/2 [Example 130, (10S,17E)-8,10,12,14,16-pentamethyl-2,10,11,12,13,16-hexahydro-8H-3,5-ethenotripyrazolo[4,3-f:3′,4′-j:4″,3″- n][1,4]oxazacyclopentadecine] |
| 112 | 94.5 | 61.5 | 86.4 | 20.7 | 0.58 | 0.62 | Cc1nn(CCO)c2c1/C=C/c1n[nH]c3ccc(cc13)-c1cnn(C)c1OC(C1CCC1)CN(C)C2 (centres unmarked) [Example 152, 2-[(17E)-10-cyclobutyl-8,12,16-trimethyl-2,8,10,11,12,13-hexahydro-14H-3,5-ethenotripyrazolo[3,4-f:3′,4′-j:4″,3″-n][1,4]oxazacyclopentadecin-14-yl]ethan-1-ol] |
| > 1000 | > 1000 | 617 | 1040 | 862 | 126 | 84.4 | Cc1c2c(nn1CCO)CNC[C@H](C)Oc1c(cnn1C)-c1ccc3[nH]nc(c3c1)/C=C/2 [Example 49, 2-[(10S,17E)-8,10,16-trimethyl-2,8,10,11,12,13-hexahydro-15H-3,5-ethenotripyrazolo[3,4-f:3′,4′-j:4″,3″- n][1,4]oxazacyclopentadecin-15-yl]ethan-1-ol] |
| 69.2 | 138 | 49.2 | 16.7 | 11.4 | 0.86 | 5.02 | Cc1c2c(nn1CCN1CCOCC1)CN(C)C[C@H](C)Oc1c(cnn1C)-c1ccc3[nH]nc(c3c1)/C=C/2 [Example 93, (10S,17E)-8,10,12,16-tetramethyl-15-[2-(morpholin-4-yl)ethyl]-2,10,11,12,13,15-hexahydro-8H-3,5-ethenotripyrazolo[3,4-f:3′,4′-j:4″,3″- n][1,4]oxazacyclopentadecine] |
